Legend:
[1] = system: sciatic nerves (BTZ-induced CIPN); test: CIPN-reversal study: sciatic nerve conduction velocity; format: in vivo, Wistar rat; settings: P > 0.05 ns
Description: (§1) Wistar female rats (n=52) (Envigo, Correzzano, Italy) at 10-11 weeks of age were utilized. The study was divided into 2 phases of 4 weeks each. […] Body weight was measured periodically during phase 1 from baseline (day 1) to day 28. At baseline and conclusion of phase 1 (day 28), nerve conduction velocity (NCV) was performed on caudal and sciatic nerves and Dynamic Aesthesiometer Test (DAT) measured mechanical threshold (MT) of the hind paw. […] Body weight was measured periodically from baseline (day 28) to day 56 (termination). NCV and MT were measured in all 4 groups at baseline and on day 35 and 56. […] At termination, sciatic nerves were obtained for β-tubulin polymerization and skin samples were procured for intraepidermal nerve fiber (IENF) density and histopathology.
(§2) NCV (meters/second) was obtained from caudal and sciatic nerves with an electromyography tool (Myto 2, ABN Neuro, Firenze, Italy). Caudal NCV was measured by placement of recording needle electrodes distally in the tail with stimulating needle electrodes 5 cm and 10 cm proximal to recording point. Peak latencies of potentials recorded at the 2 sites after nerve stimulation were determined and NCV was calculated. Sciatic NCV was determined by placement of needle recording electrodes near ankle bone and stimulating electrodes close to thigh. Peak latencies were recorded similar to caudal nerve and NCV was calculated. NCV was performed under standard conditions in a temperature-controlled facility (22±2° C.) and rats were under isoflurane anesthesia with monitoring of vital signs.

[2] = In vivo anti-tumor (interference) study: body weight; design: species or system athymic nude mouse; settings: 1 mg/kg BTZ in combination with 30 mg/kg CX-8998 orally once daily, 28 days
From the text: Care and husbandry of mice complied with USDA (U.S. Department of Agriculture) Animal Welfare Act and START IACUC (Institutional Animal Care and Use Committee) regulations. The protocol was reviewed and approved by START IACUC. Mice were individually housed in Sealsafe® Plus ventilated cages (Techniplast, West Chester, Pa., USA) and fed with Teklad 2919 (Envigo, Somerset, N.J., USA), irradiated, 19% protein, 9% fat and 4% fiber mouse chow. Mice were maintained under controlled environmental conditions (22+/−2° C. temperature, 55+/−10% relative humidity and 12-hour light/dark cycle (7 a.m.-7 p.m.).
South Texas Accelerated Research Therapeutics (START) (San Antonio, Tex., USA) conducted this study. […] The 30 mg/kg dose was tolerated in preclinical safety studies and anticipated to result in exposures in excess of the therapeutic range for 28 days. Body weight, TV and animal observations were collected twice per week to day 18 (termination) for vehicle control mice and twice per week to day 28 (termination) for each of the other 3 groups. Mean±SD body weight and TV were analyzed with Kruskal-Wallis and Dunn multiple comparison test at day 18 and with Mann Whitney test at day 28 with statistical significance at p<0.05.

[3] = system: caudal nerves (BTZ-induced CIPN); test: CIPN-reversal study: caudal nerve conduction velocity; format: in vivo, Wistar rat
Description: as §1, §2

[4] = BTZ+ CX-8998 3 mg/kg vs BTZ+ CX-8998 30 mg/kg
[5] = BTZ+ CX-8998 10 mg/kg vs BTZ+ CX-8998 30 mg/kg
[6] = BTZ vs BTZ+ CX-8998 3 mg/kg, P > 0.05 ns
[7] = BTZ+ CX-8998 3 mg/kg vs BTZ+ CX-8998 10 mg/kg, P > 0.05 ns
[8] = BTZ+ CX-8998 10 mg/kg vs BTZ+ CX-8998 30 mg/kg, P > 0.05 ns
[9] = CTRL vs BTZ+ CX-8998 10 mg/kg, P > 0.05 ns
[10] = CTRL vs BTZ+ CX-8998 30 mg/kg, P > 0.05 ns

CC(C)c1ccc(CC(=O)N[C@H](C)c2ccc(OCC(F)(F)F)cn2)cc1 [CX-8998, (R)-2-(4-Isopropylphenyl)-N-(1-(5-(2,2,2-Trifluoroethoxy)pyridin-2-yl)ethyl)acetamide]
NCV OF SCIATIC NERVE (5 weeks), Difference in rank sum (Dunn's Multiple Comparison Test) [1, 4]: −1.417 | NCV OF SCIATIC NERVE (8 weeks), Difference in rank sum (Dunn's Multiple Comparison Test) [1, 4]: −9.652 | NCV OF SCIATIC NERVE (5 weeks), Difference in rank sum (Dunn's Multiple Comparison Test) [1, 5]: 2.667 | NCV OF SCIATIC NERVE (8 weeks), Difference in rank sum (Dunn's Multiple Comparison Test) [1, 5]: −0.5152 | NCV OF SCIATIC NERVE (5 weeks), Difference in rank sum (Dunn's Multiple Comparison Test) ([1]; CTRL vs BTZ+ CX-8998 3 mg/kg): 8.917 | NCV OF SCIATIC NERVE (8 weeks), Difference in rank sum (Dunn's Multiple Comparison Test) ([1]; CTRL vs BTZ+ CX-8998 3 mg/kg): 11.98 | NCV OF SCIATIC NERVE (5 weeks), Difference in rank sum (Dunn's Multiple Comparison Test) ([1]; CTRL vs BTZ+ CX-8998 10 mg/kg): 4.833 | NCV OF SCIATIC NERVE (8 weeks), Difference in rank sum (Dunn's Multiple Comparison Test) ([1]; CTRL vs BTZ+ CX-8998 10 mg/kg): 2.848 | NCV OF SCIATIC NERVE (5 weeks), Difference in rank sum (Dunn's Multiple Comparison Test) ([1]; CTRL vs BTZ+ CX-8998 30 mg/kg): 7.500 | NCV OF SCIATIC NERVE (8 weeks), Difference in rank sum (Dunn's Multiple Comparison Test) ([1]; CTRL vs BTZ+ CX-8998 30 mg/kg): 2.333 | body weight [2]: transient body weight loss during first two weeks of treatment and no weight gain at day 18 and 28 | NCV OF CAUDAL NERVE (5 weeks), Difference in rank sum (Dunn's Multiple Comparison Test) [3, 6]: −11.21 | NCV OF CAUDAL NERVE (8 weeks), Difference in rank sum (Dunn's Multiple Comparison Test) [3, 6]: −11.55 | NCV OF CAUDAL NERVE (8 weeks), Difference in rank sum (Dunn's Multiple Comparison Test) ([3]; BTZ vs BTZ+ CX-8998 10 mg/kg, P < 0.01 **): −22.36 | NCV OF CAUDAL NERVE (5 weeks), Difference in rank sum (Dunn's Multiple Comparison Test) ([3]; BTZ vs BTZ+ CX-8998 10 mg/kg, P > 0.05 ns): −4.625 | NCV OF CAUDAL NERVE (8 weeks), Difference in rank sum (Dunn's Multiple Comparison Test) ([3]; BTZ vs BTZ+ CX-8998 30 mg/kg, P < 0.001 ***): −30.42 | NCV OF CAUDAL NERVE (5 weeks), Difference in rank sum (Dunn's Multiple Comparison Test) ([3]; BTZ vs BTZ+ CX-8998 30 mg/kg, P > 0.05 ns): −11.04 | NCV OF CAUDAL NERVE (5 weeks), Difference in rank sum (Dunn's Multiple Comparison Test) [3, 7]: 6.583 | NCV OF CAUDAL NERVE (8 weeks), Difference in rank sum (Dunn's Multiple Comparison Test) [3, 7]: −10.82 | NCV OF CAUDAL NERVE (8 weeks), Difference in rank sum (Dunn's Multiple Comparison Test) ([3]; BTZ+ CX-8998 3 mg/kg vs BTZ+ CX-8998 30 mg/kg, P < 0.05 *): −18.87 | NCV OF CAUDAL NERVE (5 weeks), Difference in rank sum (Dunn's Multiple Comparison Test) ([3]; BTZ+ CX-8998 3 mg/kg vs BTZ+ CX-8998 30 mg/kg, P > 0.05 ns): 0.1667 | NCV OF CAUDAL NERVE (5 weeks), Difference in rank sum (Dunn's Multiple Comparison Test) [3, 8]: −6.417 | NCV OF CAUDAL NERVE (8 weeks), Difference in rank sum (Dunn's Multiple Comparison Test) [3, 8]: −8.053 | NCV OF CAUDAL NERVE (8 weeks), Difference in rank sum (Dunn's Multiple Comparison Test) ([3]; CTRL vs BTZ+ CX-8998 3 mg/kg, P < 0.01 **): 25.45 | NCV OF CAUDAL NERVE (5 weeks), Difference in rank sum (Dunn's Multiple Comparison Test) ([3]; CTRL vs BTZ+ CX-8998 3 mg/kg, P > 0.05 ns): 4.542 | NCV OF CAUDAL NERVE (5 weeks), Difference in rank sum (Dunn's Multiple Comparison Test) [3, 9]: 11.13 | NCV OF CAUDAL NERVE (8 weeks), Difference in rank sum (Dunn's Multiple Comparison Test) [3, 9]: 14.64 | NCV OF CAUDAL NERVE (5 weeks), Difference in rank sum (Dunn's Multiple Comparison Test) [3, 10]: 4.708 | NCV OF CAUDAL NERVE (8 weeks), Difference in rank sum (Dunn's Multiple Comparison Test) [3, 10]: 6.583
